In article PMC11397063, “Subcutaneous Semaglutide during Breastfeeding: Infant Safety Regarding Drug Transfer into Human Milk” (Nutrients, 2024):

Key:
breastfed infants = conditions: in vivo
Excerpt: This study utilized data collected from the InfantRisk Human Milk Biorepository (HMB) which has been approved on 22 February 2021 by the institutional ethics committee (A21-4214). The biorepository targets the collection of milk samples and self-related health information for mother and infant dyad via a questionnaire. […] Therefore, we prioritized collecting samples immediately before any dose changes, even if this occurred prior to reaching steady state concentrations, to maximize the informativeness of our analysis. Participants were asked to express milk samples after a minimum of three administrations of the same dose. Milk samples collected from 0, 12, and 24 h post-administration and their corresponding de-identified health questionnaires were released for 8 different individuals from the HMB for this study. If milk samples for multiple doses were provided, samples were only released from the biorepository for the highest dose collected closest to steady-state.

[1] = estimation of relative infant dose (RID, RIDF, RIDFP) from milk; type: in vivo, human; conditions: milk concentration assumed = LLOQ 5.7 ng/mL
Excerpt: The maternal weight-adjusted infant dose, the relative infant dose (RID%), is often used to assess infant exposure to drugs through breastfeeding. This parameter is the percentage of an infant dose of drug via a full diet of human milk relative to the maternal dose (mg/kg) over the same period. An RID of […] is often considered a safety threshold in risk assessments. (1) RID (%)=100 × infant daily oral dose per kg from milk/maternal daily dose per kg
The fraction’s numerator is computed as the product of the measured drug concentration present in milk times estimated milk intake of 150 mL/kg/day.
The RID calculation was adjusted to include parameters for bioavailability and extended dosing intervals, which will improve the interpretation of RID in the setting of subcutaneous semaglutide injection.
First, we will contextualize bioavailability in the RID by including these parameters in the RID calculation (RIDF). […] The oral bioavailability of semaglutide is low but unknown per a medical information request at Novo Nordisk (B. Shah, personal communication, 20 June 2024). As such, oral bioavailability will be overestimated using the available parameter for semaglutide formulated with the permeability enhancer, SNAC (F < 0.01), though SNAC will not be present in this scenario [32]. […]

[2] = cited from earlier work
Excerpt: First, we will contextualize bioavailability in the RID by including these parameters in the RID calculation (RIDF). […] The oral bioavailability of semaglutide is low but unknown per a medical information request at Novo Nordisk (B. Shah, personal communication, 20 June 2024). As such, oral bioavailability will be overestimated using the available parameter for semaglutide formulated with the permeability enhancer, SNAC (F < 0.01), though SNAC will not be present in this scenario [32]. This overestimate will assist in co ... || However, rather than simply converting the weekly dose to an equivalent daily dose, the estimation of RID can be further extrapolated to estimate steady-state conditions over the full week by considering the plasma concentration-time profile of the […]. […] Overgaard et al. published population pharmacokinetic parameters of semaglutide. According to this publication, the disposition of semaglutide after subcutaneous administration follows a 2-compartment model with first-order absorption from the injection ...

- infant growth, all infants (breastfed infants): unremarkable
- RIDF (%), maximum possible ([1]; Equation (2), mean maternal weight 93 kg, mean 0.56 mg/week SC, F(oral) 0.01, F(S.C.) 89%, weekly dose/7): <1.12%
- maximum dose to the infant possible without detecting semaglutide in milk ([1]; infant milk intake 150 mL/kg/day): 855 ng/kg/day
SMILES: CC[C@H](C)[C@H](NC(=O)[C@H](Cc1ccccc1)NC(=O)[C@H](CCC(=O)O)NC(=O)[C@H](CCCCNC(=O)COCCOCCNC(=O)COCCOCCNC(=O)CC[C@H](NC(=O)CCCCCCCCCCCCCCCCC(=O)O)C(=O)O)NC(=O)[C@H](C)NC(=O)[C@H](C)NC(=O)[C@H](CCC(N)=O)NC(=O)CNC(=O)[C@H](CCC(=O)O)NC(=O)[C@H](CC(C)C)NC(=O)[C@H](Cc1ccc(O)cc1)NC(=O)[C@H](CO)NC(=O)[C@H](CO)NC(=O)[C@@H](NC(=O)[C@H](CC(=O)O)NC(=O)[C@H](CO)NC(=O)[C@@H](NC(=O)[C@H](Cc1ccccc1)NC(=O)[C@@H](NC(=O)CNC(=O)[C@H](CCC(=O)O)NC(=O)C(C)(C)NC(=O)[C@@H](N)Cc1cnc[nH]1)[C@@H](C)O)[C@@H](C)O)C(C)C)C(=O)N[C@@H](C)C(=O)N[C@@H](Cc1c[nH]c2ccccc12)C(=O)N[C@@H](CC(C)C)C(=O)N[C@H](C(=O)N[C@@H](CCCNC(=N)N)C(=O)NCC(=O)N[C@@H](CCCNC(=N)N)C(=O)NCC(=O)O)C(C)C [semaglutide]
- infant milestones, all infants (breastfed infants): meeting or surpassing expected milestones
- oral bioavailability (F) ([2]; semaglutide formulated with the permeability enhancer SNAC, used as overestimate): < 0.01
- subcutaneous bioavailability ([2]; subcutaneous): 89%
